Experimental data published in ChEMBL document CHEMBL3991601, “The target landscape of clinical kinase drugs” (Science, 2017).
The source made the active and inactive calls. For most assays here, no stated cut-off is given here; in the data, actives have a measured Kd and inactives only a lower limit.

Key:
Aurora kinase A = target: T1, Aurora kinase A (Homo sapiens, UniProt O14965)
T1 sequence (O14965 whole entry): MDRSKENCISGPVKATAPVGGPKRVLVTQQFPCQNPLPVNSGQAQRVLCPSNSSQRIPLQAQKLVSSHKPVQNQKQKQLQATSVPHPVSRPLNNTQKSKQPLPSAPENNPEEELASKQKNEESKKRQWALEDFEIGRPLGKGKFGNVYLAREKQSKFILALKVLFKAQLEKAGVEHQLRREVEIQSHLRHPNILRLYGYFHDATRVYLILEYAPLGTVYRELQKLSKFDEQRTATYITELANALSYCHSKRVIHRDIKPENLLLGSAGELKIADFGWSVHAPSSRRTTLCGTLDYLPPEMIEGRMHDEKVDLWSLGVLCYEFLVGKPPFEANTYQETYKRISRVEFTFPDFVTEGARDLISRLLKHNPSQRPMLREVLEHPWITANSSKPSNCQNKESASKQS

[1] = target: T2, Mitogen-activated protein kinase kinase kinase 2 (Homo sapiens, UniProt Q9Y2U5)
T2 sequence (Q9Y2U5 whole entry): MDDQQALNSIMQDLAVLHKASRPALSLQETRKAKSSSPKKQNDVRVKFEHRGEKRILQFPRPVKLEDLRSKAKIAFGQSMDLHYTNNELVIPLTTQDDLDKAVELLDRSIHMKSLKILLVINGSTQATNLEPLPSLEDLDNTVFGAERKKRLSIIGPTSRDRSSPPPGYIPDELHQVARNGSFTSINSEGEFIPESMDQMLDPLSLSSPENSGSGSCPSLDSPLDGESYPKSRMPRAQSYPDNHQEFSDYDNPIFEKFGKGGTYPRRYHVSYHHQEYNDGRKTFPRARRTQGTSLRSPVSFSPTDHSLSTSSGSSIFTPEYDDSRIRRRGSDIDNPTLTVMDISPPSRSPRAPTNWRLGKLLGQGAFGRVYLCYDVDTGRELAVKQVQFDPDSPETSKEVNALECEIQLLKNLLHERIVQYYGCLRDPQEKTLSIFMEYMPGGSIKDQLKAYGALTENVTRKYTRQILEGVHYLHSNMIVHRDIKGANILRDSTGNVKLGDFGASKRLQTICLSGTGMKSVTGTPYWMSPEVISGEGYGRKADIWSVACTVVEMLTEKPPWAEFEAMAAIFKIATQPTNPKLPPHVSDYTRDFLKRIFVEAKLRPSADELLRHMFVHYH

[2] = target: T3, Structural maintenance of chromosomes protein 1A (Homo sapiens, UniProt Q14683)
T3 sequence (Q14683 whole entry): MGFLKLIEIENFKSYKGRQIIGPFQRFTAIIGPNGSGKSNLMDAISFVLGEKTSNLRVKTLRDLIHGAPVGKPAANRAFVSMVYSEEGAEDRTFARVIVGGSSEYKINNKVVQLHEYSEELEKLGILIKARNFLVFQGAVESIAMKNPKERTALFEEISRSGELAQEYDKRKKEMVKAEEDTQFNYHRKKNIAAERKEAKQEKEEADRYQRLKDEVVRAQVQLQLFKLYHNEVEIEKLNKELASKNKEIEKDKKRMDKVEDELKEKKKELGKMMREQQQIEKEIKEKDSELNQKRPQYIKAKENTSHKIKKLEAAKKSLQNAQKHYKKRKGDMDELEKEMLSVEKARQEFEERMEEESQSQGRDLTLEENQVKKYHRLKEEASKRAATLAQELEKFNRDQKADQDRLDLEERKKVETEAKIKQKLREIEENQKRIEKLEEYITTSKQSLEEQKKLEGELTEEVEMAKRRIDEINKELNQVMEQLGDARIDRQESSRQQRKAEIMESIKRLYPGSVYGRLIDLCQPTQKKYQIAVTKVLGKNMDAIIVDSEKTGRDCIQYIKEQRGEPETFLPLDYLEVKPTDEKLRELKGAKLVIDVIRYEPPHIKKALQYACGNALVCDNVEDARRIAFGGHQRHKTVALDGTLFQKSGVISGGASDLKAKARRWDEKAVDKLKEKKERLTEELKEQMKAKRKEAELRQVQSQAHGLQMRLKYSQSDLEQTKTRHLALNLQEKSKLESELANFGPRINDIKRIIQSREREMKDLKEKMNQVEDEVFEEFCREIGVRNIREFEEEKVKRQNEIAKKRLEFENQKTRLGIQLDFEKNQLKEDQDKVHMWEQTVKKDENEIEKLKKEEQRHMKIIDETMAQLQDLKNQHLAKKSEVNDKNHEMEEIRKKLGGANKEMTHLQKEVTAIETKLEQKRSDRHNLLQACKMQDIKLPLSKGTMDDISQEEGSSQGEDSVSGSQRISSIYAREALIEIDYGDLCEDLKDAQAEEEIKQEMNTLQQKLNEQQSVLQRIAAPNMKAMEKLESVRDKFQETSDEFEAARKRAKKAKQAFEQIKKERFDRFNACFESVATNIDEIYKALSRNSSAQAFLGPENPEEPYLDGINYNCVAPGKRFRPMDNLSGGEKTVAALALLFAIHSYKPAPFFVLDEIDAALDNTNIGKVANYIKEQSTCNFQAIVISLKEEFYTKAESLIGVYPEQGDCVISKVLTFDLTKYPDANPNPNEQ

[3] = target: T4, Serine/threonine-protein kinase 3 (Homo sapiens, UniProt Q13188)
T4 sequence (Q13188 whole entry): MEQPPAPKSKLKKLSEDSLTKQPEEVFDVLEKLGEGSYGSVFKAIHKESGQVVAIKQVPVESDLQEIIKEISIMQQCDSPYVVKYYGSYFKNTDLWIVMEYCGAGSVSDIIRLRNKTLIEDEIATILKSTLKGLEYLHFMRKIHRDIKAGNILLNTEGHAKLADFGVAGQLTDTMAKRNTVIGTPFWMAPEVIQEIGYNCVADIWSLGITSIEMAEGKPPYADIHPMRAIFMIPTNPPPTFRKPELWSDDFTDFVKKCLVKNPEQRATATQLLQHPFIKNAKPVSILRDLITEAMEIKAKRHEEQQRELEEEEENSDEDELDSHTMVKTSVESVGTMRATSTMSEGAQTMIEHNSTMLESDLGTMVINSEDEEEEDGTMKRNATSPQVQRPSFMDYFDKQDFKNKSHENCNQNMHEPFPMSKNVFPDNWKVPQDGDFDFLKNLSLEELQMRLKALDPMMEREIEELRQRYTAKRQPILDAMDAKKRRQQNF

[4] = target: T5, EKC/KEOPS complex subunit TP53RK (Homo sapiens, UniProt Q96S44)
T5 sequence (Q96S44 whole entry): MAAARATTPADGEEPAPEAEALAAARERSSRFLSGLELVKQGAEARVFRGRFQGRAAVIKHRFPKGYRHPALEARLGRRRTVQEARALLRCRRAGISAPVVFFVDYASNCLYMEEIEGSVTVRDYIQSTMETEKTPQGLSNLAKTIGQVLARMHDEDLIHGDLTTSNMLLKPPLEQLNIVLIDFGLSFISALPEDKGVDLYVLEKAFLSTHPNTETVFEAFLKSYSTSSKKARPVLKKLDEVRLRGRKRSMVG

Row | Compound | Kd (Aurora kinase A) | Kd [1] | Kd [2] | Kd [3] | Kd [4]
1 | FC(F)(F)c1ccc(/C=C/c2nc(COc3ccc(CCCCn4ccnn4)cc3)co2)cc1 [MUBRITINIB] | > 30 µM (inactive) | > 30 µM (inactive) | > 30 µM (inactive) | > 30 µM (inactive) | > 30 µM (inactive)
2 | COc1ncc(-c2ccc3nccc(-c4ccnnc4)c3c2)cc1NS(=O)(=O)c1ccc(F)cc1F [OMIPALISIB] | > 30 µM (inactive) | > 30 µM (inactive) | > 30 µM (inactive) | > 30 µM (inactive) | > 30 µM (inactive)
3 | CCOc1cc2ncc(C#N)c(Nc3ccc(F)c(Cl)c3)c2cc1NC(=O)/C=C/CN(C)C [PELITINIB] | > 30 µM (inactive) | > 30 µM (inactive) | > 30 µM (inactive) | > 30 µM (inactive) | > 30 µM (inactive)
4 | CCCCCCCCCCCCCCCCCCOP(=O)([O-])OC1CC[N+](C)(C)CC1 [PERIFOSINE] | > 30 µM (inactive) | > 30 µM (inactive) | > 30 µM (inactive) | > 30 µM (inactive) | > 30 µM (inactive)
5 | Cc1nc(Nc2n[nH]c3c2CN(C(=O)N[C@H](CN(C)C)c2ccccc2)C3(C)C)c2sccc2n1 [PF-03758309] | 0.981 µM (active) | > 30 µM (inactive) | > 30 µM (inactive) | 2.2 µM (active) | > 30 µM (inactive)
6 | Cc1cnc(NC(=O)Nc2cc(Br)c(C)cc2OC[C@@H]2CNCCO2)cn1 [RABUSERTIB] | > 30 µM (inactive) | > 30 µM (inactive) | > 30 µM (inactive) | > 30 µM (inactive) | > 30 µM (inactive)
7 | CNC(=O)c1cc(Oc2ccc(NC(=O)Nc3cc(C(C)(C)C)nn3-c3ccc4ncccc4c3)c(F)c2)ccn1 [REBASTINIB] | > 30 µM (inactive) | > 30 µM (inactive) | > 30 µM (inactive) | 12.1 µM (active) | > 30 µM (inactive)
8 | CO[C@H]1C[C@@H]2CC[C@@H](C)[C@@](O)(O2)C(=O)C(=O)N2CCCC[C@H]2C(=O)O[C@H]([C@H](C)C[C@@H]2CC[C@@H](OP(C)(C)=O)[C@H](OC)C2)CC(=O)[C@H](C)/C=C(\C)[C@@H](O)[C@@H](OC)C(=O)[C@H](C)C[C@H](C)/C=C/C=C/C=C/1C [RIDAFOROLIMUS] | > 30 µM (inactive) | > 30 µM (inactive) | > 30 µM (inactive) | > 30 µM (inactive) | > 30 µM (inactive)
9 | N#CC1(c2ccc(NC(=O)c3cccnc3NCc3ccncc3)cc2)CCCC1 [RIVOCERANIB] | > 30 µM (inactive) | > 30 µM (inactive) | > 30 µM (inactive) | > 30 µM (inactive) | > 30 µM (inactive)
10 | O=c1[nH]ccc2cc(OC3CCNCC3)ccc12 [SAR-407899 FREE BASE] | > 30 µM (inactive) | > 30 µM (inactive) | > 30 µM (inactive) | > 30 µM (inactive) | > 30 µM (inactive)
11 | CN1CCN(CCOc2cc(OC3CCOCC3)c3c(Nc4c(Cl)ccc5c4OCO5)ncnc3c2)CC1 [SARACATINIB] | > 30 µM (inactive) | > 30 µM (inactive) | > 30 µM (inactive) | > 30 µM (inactive) | > 30 µM (inactive)
12 | CO[C@H]1C[C@@H]2CC[C@@H](C)[C@@](O)(O2)C(=O)C(=O)N2CCCC[C@H]2C(=O)O[C@H]([C@H](C)C[C@@H]2CC[C@@H](O)[C@H](OC)C2)CC(=O)[C@H](C)/C=C(\C)[C@@H](O)[C@@H](OC)C(=O)[C@H](C)C[C@H](C)/C=C/C=C/C=C/1C [SIROLIMUS] | > 30 µM (inactive) | > 30 µM (inactive) | > 30 µM (inactive) | > 30 µM (inactive) | > 30 µM (inactive)
13 | CO[C@H]1C[C@@H]2CC[C@@H](C)[C@@](O)(O2)C(=O)C(=O)N2CCCC[C@H]2C(=O)O[C@H]([C@H](C)C[C@@H]2CC[C@@H](OC(=O)C(C)(CO)CO)[C@H](OC)C2)CC(=O)[C@H](C)/C=C(\C)[C@@H](O)[C@@H](OC)C(=O)[C@H](C)C[C@H](C)/C=C/C=C/C=C/1C [TEMSIROLIMUS] | > 30 µM (inactive) | > 30 µM (inactive) | > 30 µM (inactive) | > 30 µM (inactive) | > 30 µM (inactive)
14 | COc1cc2c(Nc3ccc(Cl)c(Cl)c3F)ncnc2cc1OC[C@@H]1C[C@@H]2CN(C)C[C@@H]2C1 [TESEVATINIB] | > 30 µM (inactive) | > 30 µM (inactive) | > 30 µM (inactive) | > 30 µM (inactive) | > 30 µM (inactive)
15 | O=C(Cc1ccc(-c2ccc(OCCN3CCOCC3)cc2)cn1)NCc1ccccc1 [TIRBANIBULIN] | > 30 µM (inactive) | > 30 µM (inactive) | > 30 µM (inactive) | > 30 µM (inactive) | > 30 µM (inactive)
16 | O=C1NC(=O)[C@@H](c2cn3c4c(cccc24)CCC3)[C@@H]1c1c[nH]c2ccccc12 [TIVANTINIB] | > 30 µM (inactive) | > 30 µM (inactive) | > 30 µM (inactive) | > 30 µM (inactive) | > 30 µM (inactive)
17 | C[C@@H](NC(=O)c1ncnc(N)c1Cl)c1ncc(C(=O)Nc2cc(C(F)(F)F)c(Cl)cn2)s1 [TOVORAFENIB] | > 30 µM (inactive) | > 30 µM (inactive) | > 30 µM (inactive) | > 30 µM (inactive) | > 30 µM (inactive)
18 | Cc1cc(Nc2ncnc3ccc(NC4=NC(C)(C)CO4)cc23)ccc1Oc1ccn2ncnc2c1 [TUCATINIB] | > 30 µM (inactive) | > 30 µM (inactive) | > 30 µM (inactive) | > 30 µM (inactive) | > 30 µM (inactive)
